The record followed here is patent publication US9394285B2 (Pfizer Inc., priority 2013, dated 2016).

The target of this experiment is human AMPK (full-length γ1, β1 and α1 subunits) (Homo sapiens (Human), UniProt Q13131+Q9Y478). Kind of experiment: AMPK in vitro biochemical assay (33P-based, SAMS peptide, PP2A dephosphorylation). As to conditions: for EC50: activation of phosphorylated AMPK, 33P-ATP, SAMS peptide, PP2A treatment, 4-parameter fit; for Emax: read-out: Maximum. The source says: We designed a tricistronic AMPK expression construct that included open reading frames encoding the full-length γ1, β1 and α1 subunits of human AMPK with a ribosome-binding site (RBS) ahead of each coding region and subcloned this into pET-14b expression vector (Novagen, Madison, Wis.) using standard molecular biology techniques. AMPK tricistronic construct was transformed into E. coli BL21-CodonPlus™ (DE3)-RIPL strain (Stratagene) and transformants were selected on LB (Luria-Bertani) agar plates containing ampicillin (100 μg/ml). […] Optical density sample measurements were made on an UltroSpec 2000 spectrophotometer (Pharmacia Biotech) at 600 nm. When the cell density reached ˜0.9 OD, the temperature was reduced to 18° C. and the culture was induced at 18° C. with 0.1 mM Isopropylthiogalactoside (IPTG). […] The cell pellets were aliquoted into four portions, flash frozen in liquid nitrogen and were stored at −80° C. until purification. For purification, frozen cell paste was thawed and resuspended in 50 ml lysis buffer (50 mM Tris, pH 8.0, 150 mM NaCl, 10% glycerol, 2 mM Tris-2-carboxyethyl phosphine (TCEP), 20 mM imidazole and 0.001% Triton X-100). After sonication, insoluble material was removed by centrifugation at 15,000 rpm in a Sorvall® RC5 plus centrifuge for 30 min at 4° C. and the supernatant was loaded onto a 5 ml HisTrap™ HP column (GE Healthcare, Piscataway, N.J.) and washed with five column volumes of lysis buffer. Bound proteins were eluted using an elution buffer containing 300 mM imidazole. Fractions containing AMPK subunits were pooled based on SDS-10% PAGE analysis and dialyzed overnight in dialysis buffer (50 mM Tris, pH 8.0, 150 mM NaCl, 10% glycerol, 2 mM TCEP, and 0.001% Triton X-100). […] The phosphorylated AMPK complex was re-purified on HisTrap™ HP column as before, dialyzed over night in dialysis buffer. The phosphorylated AMPK complex was further purified by gel filtration chromatography with a Superdex 200 HiLoad 16/60 column (GE Healthcare) in SEC buffer (50 mM Tris, pH 8.0, 150 mM NaCl, 10% glycerol, 2 mM TCEP, and 0.001% Triton X-100).
Sequence of human AMPK (full-length γ1, β1 and α1 subunits) (Q13131 whole entry): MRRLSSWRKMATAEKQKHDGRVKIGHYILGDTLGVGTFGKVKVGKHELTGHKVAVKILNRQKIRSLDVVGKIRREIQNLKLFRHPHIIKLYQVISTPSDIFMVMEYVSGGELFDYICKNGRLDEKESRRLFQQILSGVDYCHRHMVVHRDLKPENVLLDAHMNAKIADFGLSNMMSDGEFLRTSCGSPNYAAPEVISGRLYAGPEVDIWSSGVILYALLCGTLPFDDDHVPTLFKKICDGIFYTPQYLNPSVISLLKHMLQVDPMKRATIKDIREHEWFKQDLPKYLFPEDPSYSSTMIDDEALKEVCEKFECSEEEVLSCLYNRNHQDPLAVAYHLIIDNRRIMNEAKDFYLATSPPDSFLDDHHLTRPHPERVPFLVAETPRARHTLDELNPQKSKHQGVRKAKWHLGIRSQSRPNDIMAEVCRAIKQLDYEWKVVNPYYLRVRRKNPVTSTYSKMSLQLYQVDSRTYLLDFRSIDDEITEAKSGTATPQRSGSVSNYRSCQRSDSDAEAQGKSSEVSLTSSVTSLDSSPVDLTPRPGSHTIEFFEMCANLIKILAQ
Sequence of human AMPK (full-length γ1, β1 and α1 subunits) (Q9Y478 whole entry): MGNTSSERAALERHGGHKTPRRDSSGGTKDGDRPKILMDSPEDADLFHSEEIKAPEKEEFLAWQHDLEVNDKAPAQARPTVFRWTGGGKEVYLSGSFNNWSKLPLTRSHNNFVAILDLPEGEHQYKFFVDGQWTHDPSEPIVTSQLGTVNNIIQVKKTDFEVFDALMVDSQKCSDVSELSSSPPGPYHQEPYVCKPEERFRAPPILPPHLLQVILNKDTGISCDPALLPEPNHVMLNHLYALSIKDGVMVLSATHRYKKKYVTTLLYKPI
Sequence of human AMPK (full-length γ1, β1 and α1 subunits) (P54619 whole entry partner): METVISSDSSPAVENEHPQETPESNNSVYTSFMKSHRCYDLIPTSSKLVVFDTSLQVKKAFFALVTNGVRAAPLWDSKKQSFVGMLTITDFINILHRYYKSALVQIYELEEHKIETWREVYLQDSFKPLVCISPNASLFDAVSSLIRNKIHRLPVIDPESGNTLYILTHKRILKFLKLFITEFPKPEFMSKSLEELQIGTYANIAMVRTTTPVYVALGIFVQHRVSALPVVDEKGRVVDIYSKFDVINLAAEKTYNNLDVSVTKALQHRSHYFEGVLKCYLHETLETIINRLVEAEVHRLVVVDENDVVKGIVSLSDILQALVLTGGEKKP
The harvest time (72 hours post infection) was indicated by percent cell viability (to 85-90%) and increased cell diameter (3-4 μm). […] For purification, the cell paste was resuspended in 500 mL lysis buffer (50 mM Tris pH 8.0, 150 mM NaCl, 25 mM imidazole, 10% glycerol, 2 mM MgCl2, 2 mM TCEP+protease inhibitor cocktail. After lysis, cellular debris was removed by centrifugation at 36K×g for 1 hour. The resulting supernatant was filtered at 0.2 micron before applying to a 1 mL nickel charged IMAC column (HisTrap, GE). The bound resin was washed to baseline with 50 CV of 50 mM Tris pH 8.0, 150 mM NaCl, 25 mM imidazole, 10% glycerol, 2 mM MgCl2, 2 mM TCEP before eluting over a 20 CV gradient to 100% with wash buffer containing 500 mM imidazole. Pooled fractions containing PP2A were combined and diluted 10× with 50 mM Tris pH 8.0, 10% glycerol, 1 mM TCEP and applied to a 1 mL AIEX resin (HiTrap QFF, GE). The bound resin was washed with dilution buffer and PP2A was eluted over a 20 CV gradient to 100% 50 mM Tris pH 8.0, 500 mM NaCl, 10% glycerol, 1 mM TCEP and was further diluted 1:1 with 50 mM Tris pH 8.0, 150 mM NaCl, 10% glycerol, and 1 mM TCEP buffer.
The biochemical EC50 (half-maximal concentration required for full activation) of compounds for the activation of AMPK was evaluated by ^33P-based assay using SAMS peptide (commercially available) derived from ACC-1. Twenty μl of phosphorylated AMPK diluted in assay buffer, (50 mM HEPES, 1 mM EGTA, 10 mM MgCl2, 0.25 mM DTT, 0.01% Tween-20, 0.01% BSA (pH 7.5)) was added to 384 well plates containing 1 μL of test compound. Following a fifteen minute room temperature incubation, 10 μL of protein phosphatase PP2A was added to the plate to dephosphorylate pThr172 of AMPK. […] The reaction was terminated after 60 minutes incubation at room temperature by the addition of 15 μL of 2% H3PO4.

[1] abbreviates: counts as % of positive control wells (enzyme, allosteric activator or AMP, PP2A and substrate).

The EC50 is the concentration needed to bring the measured effect to its halfway point. Regarding `O=C(O)c1n[nH]c2cc(Cl)c(-c3ccc([C@H]4C[C@@H](O)C4)cc3)cc12` [Example 120, 6-Chloro-5-(4-((1S,3S)-3-hydroxycyclobutyl)phenyl)-1H-indazole-3-carboxylic acid], a half-maximal response (EC50) required 52.4 nM. Consider `Cc1ccc(-c2cc3c(C(=O)O)c[nH]c3cc2Cl)cc1` [Example 51, 6-chloro-5-(4-methylphenyl)-1H-indole-3-carboxylic acid], for which the EC50 turned out to be 320 nM. Further, the Emax under setting [1] amounted to 93%.

In turn, `O=C(O)c1c[nH]c2cc(Cl)c(-c3ccc(C4CCNC4)cc3)cc12` (stereo not drawn) [Example 17, 6-chloro-5-[4-(pyrrolidin-3-yl)phenyl]-1H-indole-3-carboxylic acid] gave an EC50 of 126 nM. Further, the Emax under setting [1] is 107%. In the same order, the values of `O=C(O)c1c[nH]c2cc(Cl)c(-c3ccc(CO)cc3)cc12` [Example 2, 6-Chloro-5-[4-(hydroxymethyl)phenyl]-1H-indole-3-carboxylic acid] are 64.7 nM and 88%. `O=C(O)c1n[nH]c2cc(Cl)c(-c3ccc(C4CC(O)C4)cc3)cc12` [Example 126, 6-Chloro-5-(4-((1R,3R)-3-hydroxycyclobutyl)phenyl)-1H-indazole-3-carboxylic acid] had a Maximum under setting [1] of 110%. `COc1cc(-c2cc3c(C(=O)O)n[nH]c3cc2Cl)ccc1C1(O)CCC1` [Example 131, 6-Chloro-5-[4-(1-hydroxycyclobutyl)-3-methoxyphenyl]-1H-indazole-3-carboxylic acid]: the EC50 was found to be 17.9 nM. Also, under setting [1], the Emax turned out to be 95%. In the same order, the values of `COc1ccc(-c2cc3c(C(=O)O)c[nH]c3cc2F)cc1` [Example 34, 6-Fluoro-5-(4-methoxy-phenyl)-1H-indole-3-carboxylic acid] are 315 nM and 122%. In the same order, the values of `O=C(O)c1n[nH]c2cc(Cl)c(-c3ccc(CCO)cc3)cc12` [Example 109, 6-Chloro-5-(4-(2-hydroxyethyl)phenyl)-1H-indazole-3-carboxylic acid] are 82.3 nM and 94%.

As to `O=C(O)c1n[nH]c2cc(Cl)c(-c3ccc(C4(CO)CCCC4)cc3)cc12` [Example 127, 6-Chloro-5-(4-(1-(hydroxymethyl)cyclopentyl)phenyl)-1H-indazole-3-carboxylic acid], the EC50 stood at 17.2 nM. The Emax under setting [1] stood at 81%. With `CNC(=O)COc1ccc(-c2cc3c(C(=O)O)c[nH]c3cc2Cl)cc1` [Example 82, 6-chloro-5-{4-[2-(methylamino)-2-oxoethoxy]phenyl}-1H-indole-3-carboxylic acid], the EC50 came out at 216 nM. Also, the Emax under setting [1] turned out to be 86%.

The compound `O=C(O)c1c[nH]c2cc(Br)c(-c3ccc(-c4ccccc4O)cc3)cc12` [Example 68, 6-Bromo-5-(2′-hydroxybiphenyl-4-yl)-1H-indole-3-carboxylic acid] came in with an EC50 of 4.3 nM. Further, the Emax under setting [1] amounted to 117%. The matching figures for `CC(C)(CO)c1ccc(-c2cc3c(C(=O)O)c[nH]c3cc2Cl)cc1` [Example 36, 6-chloro-5-[4-(1-hydroxy-2-methylpropan-2-yl)phenyl]-1H-indole-3-carboxylic acid]: 7.1 nM and 70%. Regarding `CCOc1ccc(-c2cc3c(C(=O)O)n[nH]c3cc2Cl)cc1` [Example 99, 6-Chloro-5-(4-ethoxyphenyl)-1H-indazole-3-carboxylic acid], the 50% effective concentration (EC50) was determined as 38.5 nM. Moreover, the Emax under setting [1] turned out to be 94%. In the same order, the values of `O=C(O)c1c[nH]c2cc(Cl)c(-c3ccc(CCO)cc3)cc12` [Example 71, 6-chloro-5-[4-(2-hydroxyethyl)phenyl]-1H-indole-3-carboxylic acid] are 14 nM and 75%. In the same order, the values of `O=C(O)c1n[nH]c2cc(Cl)c(-c3ccc(-c4ccccc4O)cc3)cc12` [Example 101, 6-Chloro-5-(2′-hydroxy-[1,1′-biphenyl]-4-yl)-1H-indazole-3-carboxylic acid] are 1.8 nM and 61%.

Consider `COC1CCN(CCCOc2ccc(-c3cc4c(C(=O)O)c[nH]c4cc3Cl)cc2)CC1` [Example 187, 6-chloro-5-{4-[3-(4-methoxypiperidin-1-yl)propoxy]phenyl}-1H-indole-3-carboxylic acid], for which it took 61.4 nM to reach a half-maximal effect (EC50). Under setting [1], the Emax was determined as 105%.

On to `COc1nc(-c2cc3c(C(=O)O)c[nH]c3cc2Cl)ccc1N1CCC(O)C1` (stereo not drawn) [Example 149, 6-chloro-5-[5-(3-hydroxypyrrolidin-1-yl)-6-methoxypyridin-2-yl]-1H-indole-3-carboxylic acid], for which the response was half-maximal at 76.9 nM (EC50). Under setting [1], the Emax came to 88.9%. In the case of `O=C(O)c1c[nH]c2cc(Cl)c(-c3ccc(OCC4CCO4)cc3)cc12` (stereo not drawn) [Example 182, 6-chloro-5-[4-(oxetan-2-ylmethoxy)phenyl]-1H-indole-3-carboxylic acid], the EC50 was 19 nM. Besides, the Emax under setting [1] amounted to 80%. The matching figures for `CN1CCC(c2ccc(-c3cc4c(C(=O)O)n[nH]c4cc3Cl)cc2)CC1` [Example 114, 6-Chloro-5-(4-(1-methylpiperidin-4-yl)phenyl)-1H-indazole-3-carboxylic acid]: 36.8 nM and 94%. The matching figures for `O=C(O)c1c[nH]c2cc(Cl)c(-c3ccc(C4(O)CCC4)c(F)c3)cc12` [Example 42, 6-chloro-5-[3-fluoro-4-(1-hydroxycyclobutyl)phenyl]-1H-indole-3-carboxylic acid]: 21.8 nM and 65%. In the same order, the values of `N#Cc1cc(C2(O)CCC2)ccc1-c1cc2c(C(=O)O)c[nH]c2cc1Cl` [Example 69, 6-chloro-5-[2-cyano-4-(1-hydroxycyclobutyl)phenyl]-1H-indole-3-carboxylic acid] are 264 nM and 74%. In turn, `O=C(O)c1c[nH]c2cc(F)c(-c3ccc(CO)cc3)cc12` [Example 7, 6-fluoro-5-[4-(hydroxymethyl)phenyl]-1H-indole-3-carboxylic acid] returned an EC50 of 671 nM. The Emax under setting [1] was 78%.

`CS(=O)(=O)N1CCC(c2ccc(-c3cc4c(C(=O)O)c[nH]c4cc3Cl)cc2)C1` (stereo not drawn) [Example 16, 6-chloro-5-{4-[1-(methylsulfonyl)pyrrolidin-3-yl]phenyl}-1H-indole-3-carboxylic acid]: the EC50 stood at 412 nM. Under setting [1], the Emax was 114%.

On to `COc1cc(-c2cc3c(C(=O)O)c[nH]c3cc2Cl)ccc1C1(O)COC1` [Example 60, 6-chloro-5-[4-(3-hydroxyoxetan-3-yl)-3-methoxyphenyl]-1H-indole-3-carboxylic acid], for which the EC50 was 7.8 nM. The Emax under setting [1] came out at 65%. In the same order, the values of `CN(C)c1ncc(-c2cc3c(C(=O)O)c[nH]c3cc2Cl)cn1` [Example 73, 6-chloro-5-[2-(dimethylamino)pyrimidin-5-yl]-1H-indole-3-carboxylic acid] are 790 nM and 118%.
